Structures can show the parent of a compound that is named as a salt. Where two headings read alike, the source gives them in different places.
Key:
α1-Adrenergic receptor = α1-Adrenergic receptor binding (Leslie Morrow and Creese); conditions: rat brain (title of cited method)
Description: (§1) The IC50 values of the various products which form part of this invention for the other receptors were measured according to the techniques described in the following references:
Leslie Morrow A. and Creese I. Characterization of α1-adrenergic receptor subtypes in rat brain: a reevaluation of ^3 H-WB4101 and ^3 H prazosin binding. Mol. Pharmacol. 29, 321-330, 1986.

α2-Adrenergic receptor = biological target: T1, α2-Adrenergic receptor (Rattus norvegicus, UniProt P22909); assay: α2-Adrenergic receptor binding (Mallard et al.)
T1 construct: in the rat brain; from tissue; host or cells: rat brain
T1 sequence (P22909 1-465): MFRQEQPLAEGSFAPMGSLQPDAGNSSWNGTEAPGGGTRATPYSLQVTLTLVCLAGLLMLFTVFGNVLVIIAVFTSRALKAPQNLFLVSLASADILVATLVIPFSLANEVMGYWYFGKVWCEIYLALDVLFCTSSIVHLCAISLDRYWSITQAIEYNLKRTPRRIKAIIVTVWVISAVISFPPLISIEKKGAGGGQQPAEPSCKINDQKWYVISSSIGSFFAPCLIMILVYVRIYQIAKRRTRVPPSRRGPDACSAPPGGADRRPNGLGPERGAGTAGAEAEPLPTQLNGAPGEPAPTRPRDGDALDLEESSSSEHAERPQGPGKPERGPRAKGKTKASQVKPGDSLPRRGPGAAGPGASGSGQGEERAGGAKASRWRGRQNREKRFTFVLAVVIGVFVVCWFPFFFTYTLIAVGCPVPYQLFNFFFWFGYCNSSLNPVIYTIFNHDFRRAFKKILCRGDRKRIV
Description: as §1
Mallard N. J., Tyacke R., Hudson A. L. and Nutt D. S. Comparative binding studies of ^3 -idazoxan and ^3 -RX821002 in the rat brain. Brit. J. Pharmacol. 102, 221P, 1991.

5-HT2 = biological target: T2, 5-HT2 (Rattus norvegicus, UniProt P14842); assay: 5-HT2 receptor binding (Leysen et al.); conditions: 3H-ketanserine (title of cited method)
T2 construct: from tissue
Description: as §1
Leysen J. E., Niemegeers C. J. E., Van Nueten J. M. and Laduron P.M. ^3 H-ketanserine (R 41468), a selective ^3 H ligand for serotonin2 receptor binding sites. Mol. Pharmacol., 21, 301-330, 1982.

5-HT1C = biological target: T3, 5-HT1C (Sus scrofa, UniProt K7GSR7); assay: 5-HT1C receptor binding (Pazos et al.); design: species or system porcine
T3 construct: serotonergic ligands to the porcine choroid plexus; from tissue; host or cells: porcine choroid plexus
T3 sequence (K7GSR7 1-457): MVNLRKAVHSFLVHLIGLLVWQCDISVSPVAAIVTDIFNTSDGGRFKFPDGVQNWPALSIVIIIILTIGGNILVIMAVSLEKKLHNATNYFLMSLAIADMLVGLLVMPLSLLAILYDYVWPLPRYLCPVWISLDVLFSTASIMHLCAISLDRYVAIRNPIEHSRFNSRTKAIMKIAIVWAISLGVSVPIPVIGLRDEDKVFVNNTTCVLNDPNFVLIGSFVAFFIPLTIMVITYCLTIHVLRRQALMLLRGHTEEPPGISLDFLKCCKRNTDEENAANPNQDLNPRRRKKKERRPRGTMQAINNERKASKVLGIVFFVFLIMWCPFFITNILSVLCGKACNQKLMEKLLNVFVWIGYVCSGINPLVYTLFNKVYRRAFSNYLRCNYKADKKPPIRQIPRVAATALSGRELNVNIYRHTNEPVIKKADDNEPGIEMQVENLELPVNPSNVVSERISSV
Description: as §1
Pazos A., Hoyer D. and Palacios J. M. The binding sites of serotonergic ligands to the porcine choroid plexus: characterization of a new type of serotonin recognition site. Eur. J. Pharmacol., 106, 539-546, 1985.

5-HT1A = biological target: T4, 5-HT1A (Rattus norvegicus, UniProt P19327); assay: 5-HT1A receptor binding (Peroutka)
T4 construct: from tissue; host or cells: rat frontal cortex
T4 sequence (P19327 1-422): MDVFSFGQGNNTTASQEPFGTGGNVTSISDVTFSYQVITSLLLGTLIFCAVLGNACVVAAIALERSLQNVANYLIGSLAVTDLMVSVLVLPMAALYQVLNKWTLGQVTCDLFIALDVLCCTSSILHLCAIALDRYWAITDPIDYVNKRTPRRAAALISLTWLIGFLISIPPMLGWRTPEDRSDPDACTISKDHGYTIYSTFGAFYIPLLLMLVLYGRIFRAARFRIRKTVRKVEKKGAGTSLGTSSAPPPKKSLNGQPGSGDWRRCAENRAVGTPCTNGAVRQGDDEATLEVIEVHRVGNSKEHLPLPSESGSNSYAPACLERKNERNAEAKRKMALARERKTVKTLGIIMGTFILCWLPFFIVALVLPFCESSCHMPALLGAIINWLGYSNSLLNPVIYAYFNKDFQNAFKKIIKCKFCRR
Description: as §1
(§2) Peroutka S. J. Pharmacological differentiation and characterization of 5-HT1A, 5-HT1B and 5-HT1C binding sites in rat frontal cortex. J. Neurochem., 45, 529-540, 1986.

5-HT1D = assay: Affinity for 5-HT1D receptors (3H-5-HT binding, sheep caudate nuclei membranes); conditions: Ratio of the IC50 values for the 5HT1A and 5HT1D receptors
Description: This study is carried out according to the technique described by Herrick-Davis and Titeler (J. Neurochem. 50, 1624-1631, 1988).
Preparation of the membranes:
Sheep brains are removed at the local abattoir and transported in ice. The caudate nuclei are removed, weighed and homogenized with a Polytron for 20 sec. (speed 6-7) in 20 volumes of Tris-HCl 50 mM, pH 7.7. The homogenate is centrifuged for 10 min at 48,000 g with an L5 50E centrifuge (Beckman).
The pellet, taken up in 20 volumes of Tris-HCl 50 mM, pH 7.7, is placed in a water bath at 37° C. for 10 min and then recentrifuged for 10 min at 48,000 g. The pellet then obtained is immediately frozen in fractions containing 0.5 g of tissue.
The pellet is defrosted and homogenized with a Dounce in 80 volumes of Tris-HCl, 50 mM pH 7.7 containing 4 mM CaCl2, 10μM of pargyline and 0.1% of ascorbic acid.
Binding is carried out at 25° C. by incubating for 30 min:
0.1 ml of buffer or 10 μM, as final concentration, of sumatriptan, in order to obtain the non-specific binding, or the product which forms part of this invention at various concentrations (between 10^-10 and 10^-6 M).
0.8 ml of membrane suspension
0.1 ml of ^3 H-5-HT (15 to 30 Ci/mM, New England Nuclear France)
The incubation is brought to an end by rapid filtration through GF/B filters and rinsing with 3 times 3 ml of ice-cold buffer, using a harvester manufactured by Brandel which makes it possible to filter 48 samples. The filters are introduced into vials containing 4 ml of emulsifier-safe liquid scintillant (Packard) and the radioactivity measured with a Tri-carb 4640 counter (Packard).
The IC50 (concentration which inhibits the specific affinity by 50%) is determined graphically.

D2-Dopaminergic receptor = biological target: T5, D2-Dopaminergic receptor (Canis lupus familiaris, UniProt Q9GJU1); assay: D2-Dopaminergic receptor binding (Nisnik et al.)
T5 construct: from tissue
Description: as §1
Nisnik H. B., Grigoriadis D. E., Pri-Bar I., Buckman O. and Seeman P. Dopamine D2 receptors selectively labeled by a benzamide neuroleptic: ^3 H-YM-09159-2 Naunyn-Schmiedeberg's Arch. Pharmacol. 329, 333-343, 1985.

5-HT1B = biological target: T6, 5-HT1B (Rattus norvegicus, UniProt P28564); assay: 5-HT1B receptor binding (Peroutka)
T6 construct: from tissue; host or cells: rat frontal cortex
Description: as §1, §2

[1] = rat brain (title of cited method), read-out: IC50 α2
[2] = porcine choroid plexus (title of cited method), read-out: IC50 5-HT1C
[3] = rat frontal cortex (title of cited method), mean, read-out: IC50 5-HT1A mean
[4] = 3H-YM-09159-2 (title of cited method), read-out: IC50 D2
[5] = rat frontal cortex (title of cited method), mean, read-out: IC50 5-HT1B mean

T6 sequence (P28564 whole entry): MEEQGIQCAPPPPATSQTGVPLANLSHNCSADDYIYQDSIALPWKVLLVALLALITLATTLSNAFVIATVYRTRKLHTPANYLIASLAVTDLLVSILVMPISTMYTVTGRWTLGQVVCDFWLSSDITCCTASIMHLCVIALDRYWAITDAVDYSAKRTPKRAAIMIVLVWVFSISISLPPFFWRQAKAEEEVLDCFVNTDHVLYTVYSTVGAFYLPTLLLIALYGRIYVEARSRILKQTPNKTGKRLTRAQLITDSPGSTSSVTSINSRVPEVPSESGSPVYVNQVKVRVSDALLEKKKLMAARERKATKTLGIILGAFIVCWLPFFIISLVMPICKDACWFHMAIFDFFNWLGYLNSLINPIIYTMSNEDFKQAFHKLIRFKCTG
T2 sequence (P14842 whole entry): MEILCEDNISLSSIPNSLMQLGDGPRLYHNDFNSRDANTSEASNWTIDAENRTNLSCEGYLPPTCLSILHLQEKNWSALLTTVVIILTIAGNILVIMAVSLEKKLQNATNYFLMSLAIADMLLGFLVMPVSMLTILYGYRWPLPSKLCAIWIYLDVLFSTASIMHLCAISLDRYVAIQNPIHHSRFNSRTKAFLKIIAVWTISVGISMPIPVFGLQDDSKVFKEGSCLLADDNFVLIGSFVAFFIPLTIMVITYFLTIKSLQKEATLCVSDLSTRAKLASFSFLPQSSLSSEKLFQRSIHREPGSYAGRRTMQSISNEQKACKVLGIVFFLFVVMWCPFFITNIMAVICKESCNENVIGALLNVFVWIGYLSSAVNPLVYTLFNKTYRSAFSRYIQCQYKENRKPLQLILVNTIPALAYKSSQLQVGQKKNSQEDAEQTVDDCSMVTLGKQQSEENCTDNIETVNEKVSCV
T5 sequence (Q9GJU1 whole entry): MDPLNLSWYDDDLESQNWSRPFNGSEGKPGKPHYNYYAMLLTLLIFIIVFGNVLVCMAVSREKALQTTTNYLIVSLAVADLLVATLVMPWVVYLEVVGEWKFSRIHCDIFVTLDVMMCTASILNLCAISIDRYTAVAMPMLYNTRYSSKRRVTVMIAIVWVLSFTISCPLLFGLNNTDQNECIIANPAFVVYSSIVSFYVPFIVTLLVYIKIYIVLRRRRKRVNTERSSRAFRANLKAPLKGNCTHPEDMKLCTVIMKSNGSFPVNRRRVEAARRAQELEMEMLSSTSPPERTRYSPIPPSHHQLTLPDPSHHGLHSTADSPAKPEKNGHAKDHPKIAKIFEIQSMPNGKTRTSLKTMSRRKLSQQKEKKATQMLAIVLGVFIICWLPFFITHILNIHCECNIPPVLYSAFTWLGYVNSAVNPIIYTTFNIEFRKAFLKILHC

Row | Compound | IC50 (α1-Adrenergic receptor) [nM] | IC50 (α2-Adrenergic receptor; [1]) [nM] | IC50 (5-HT2) [nM] | IC50 (5-HT1C; [2]) [nM] | IC50 (5-HT1A; [3]) [nM] | Ratio 1A/1D (5-HT1D) | IC50 (D2-Dopaminergic receptor; [4]) [nM] | IC50 (5-HT1B; [5]) [nM] | IC50 (α2-Adrenergic receptor) [nM] | IC50 (5-HT1A) [nM] | IC50 (D2-Dopaminergic receptor) [nM] | IC50 (5-HT1B) [nM] | IC50 (5-HT1C) [nM]
1 | Cc1cccc(N2CCN(C(=O)COc3ccc4[nH]cc(CCNC(=O)OC(C)(C)C)c4c3)CC2)c1C [Example 5A, 4-(2,3 -Xylyl)-1-(tert-butoxycarbamate-tryptamine-5-O-carboxymethyl)piperazide hydrochloride] | > 1000 | > 1000 | > 1000 | 1000 | 34.5 | 17.3 | > 1000 | 1 |  |  |  |  | 
2 | COc1cccc(N2CCN(C(=O)COc3ccc4[nH]cc(CCNC(=O)OC(C)(C)C)c4c3)CC2)c1 [Example 6A, 4-(m-Methoxyphenyl)-1-(tert-butoxycarbamate-tryptamine-5-carboxymethyl)piperazide hydrochloride] | > 1000 | > 1000 | > 1000 | > 1000 | 100 | 6.3 | > 1000 | 1.5 |  |  |  |  | 
3 | COc1cccc(N2CCN(C(=O)COc3ccc4[nH]cc(CCN)c4c3)CC2)c1 [Example 6, 4-(m-Methoxyphenyl)-1-(tryptamine-5-O-carboxymethyl) piperazide hydrochloride] | > 1000 |  | > 1000 | > 1000 |  | 8.1 |  |  | > 1000 | 23.5 | > 1000 | 1.1 | 
4 | Cc1cccc(N2CCN(C(=O)COc3ccc4[nH]cc(CCN)c4c3)CC2)c1C [Example 5, 4-(2,3-Xylyl)-1-(tryptamine-5-O-carboxymethyl) piperazide hydrochloride] | > 1000 | > 1000 | > 1000 |  | 240 | 8.2 | > 1000 |  |  |  |  | 6 | > 1000
5 | NCCc1c[nH]c2ccc(OCC(=O)N3CCN(c4cccc5ccccc45)CC3)cc12 [Example 4, 4-(Naphth-1-yl)-1-(tryptamine-5-O-carboxymethyl) piperazide hydrochloride] | > 1000 | > 1000 | > 1000 |  | 115 | 35.9 | > 1000 |  |  |  |  | 1.9 | 1800
6 | Cc1ccccc1N1CCN(C(=O)C(C)Oc2ccc3[nH]cc(CCN)c3c2)CC1 (stereo not drawn) [Example 11, 4-o-Tolyl-1-[tryptamine-5-O-(α-methylcarboxymethyl)]piperazide hydrochloride] |  |  | > 1000 |  | 125 | 20.8 |  |  |  |  |  | 5.5 | 1000
7 | NCCc1c[nH]c2ccc(OC(C(=O)N3CCN(c4cccc5ccccc45)CC3)c3ccccc3)cc12 (stereo not drawn) [Example 10, 4-Naphthyl-1-[tryptamine-5-O-(α-phenylcarboxymethyl)]piperazide hydrochloride] | > 1000 | > 1000 | > 1000 | > 1000 | 465 | 0.7 | > 1000 | 335 |  |  |  |  | 
8 | CSc1ccc2c(c1)C(N1CCN(C(=O)COc3ccc4[nH]cc(CCNC(=O)OC(C)(C)C)c4c3)CC1)Cc1ccccc1S2 (stereo not shown) [Example 8, 1-[(tert-Butoxycarbamate)tryptamine-5-O-carboxymethyl]-4-[10-(8-methylthio-10-11-dihydrodibenzo[b, f]thiepine)]piperazide hydrochloride] |  |  |  |  | > 1000 |  |  | 1000 |  |  |  |  | 
9 | NCCc1c[nH]c2ccc(OCC(=O)N3CCN(c4cccc(C(F)(F)F)c4)CC3)cc12 [Example 3, 4-(a,a,a-Trifluoro-m-tolyl)-1-(tryptamine-5-O-carboxymethyl) piperazide hydrochloride] | > 1000 | > 1000 | > 1000 |  |  | 4.8 | > 1000 |  |  | 33.5 |  | 1.9 | 4000
10 | Cc1ccccc1N1CCN(C(=O)COc2ccc3[nH]cc(CCN)c3c2)CC1 [Example 1, 4-o-Tolyl-1-.(tryptamine-5-O-carboxymethyl)-piperazide hydrochloride] | > 1000 | > 1000 | > 1000 |  |  | 11.2 | > 1000 |  |  | 23.5 |  | 0.6 | 3000
11 | Cc1ccccc1N1CCN(C(=O)C(Oc2ccc3[nH]cc(CCN)c3c2)c2ccccc2)CC1 (stereo not drawn) [Example 9, 4-O-Tolyl-1-[tryptamine-5-O-(α-phenylcarboxymethyl)]piperazide hydrochloride] | > 1000 | > 1000 | 550 | 600 | 325 | 1.7 | > 1000 | 85 |  |  |  |  | 
12 | Cc1ccccc1N1CCN(C(=O)COc2ccc3[nH]cc(CCNC(=O)OC(C)(C)C)c3c2)CC1 [ID, 4-o-Tolyl-1-(tert-butoxycarbamate-tryptamine-5-O-carboxymethyl) piperazide hydrochloride] | 8500 | 7000 | 2000 |  | 120 | 18.5 | > 100 |  |  |  |  |  | 

From US5641779A, “Selective ligands of 5-HT1D -5-HT1B receptors derived from indolepiperazine which are useful medicaments” (Pierre Fabre Medicament, priority 1992, dated 1997)
